# Data: article PMC6720883, “In Vitro Inhibitory Effects of APINACA on Human Major Cytochrome P450, UDP-Glucuronosyltransferase Enzymes, and Drug Transporters” (Molecules, 2019)
# Where two headings read alike, the source gives them in different places.
# Columns and labels:
# [1] = biological target: T1, UGT1A9 (Homo sapiens, UniProt O60656); assay: Inhibition of UGT1A9-catalyzed mycophenolic acid glucuronidation in human liver microsomes; type: in vitro ADME; set-up: […]; tissue Corning Life Sciences; details: IC50 UGT1A9 mycophenolic acid glucuronidation, pooled human liver microsomes
# T1 sequence (O60656 26-530): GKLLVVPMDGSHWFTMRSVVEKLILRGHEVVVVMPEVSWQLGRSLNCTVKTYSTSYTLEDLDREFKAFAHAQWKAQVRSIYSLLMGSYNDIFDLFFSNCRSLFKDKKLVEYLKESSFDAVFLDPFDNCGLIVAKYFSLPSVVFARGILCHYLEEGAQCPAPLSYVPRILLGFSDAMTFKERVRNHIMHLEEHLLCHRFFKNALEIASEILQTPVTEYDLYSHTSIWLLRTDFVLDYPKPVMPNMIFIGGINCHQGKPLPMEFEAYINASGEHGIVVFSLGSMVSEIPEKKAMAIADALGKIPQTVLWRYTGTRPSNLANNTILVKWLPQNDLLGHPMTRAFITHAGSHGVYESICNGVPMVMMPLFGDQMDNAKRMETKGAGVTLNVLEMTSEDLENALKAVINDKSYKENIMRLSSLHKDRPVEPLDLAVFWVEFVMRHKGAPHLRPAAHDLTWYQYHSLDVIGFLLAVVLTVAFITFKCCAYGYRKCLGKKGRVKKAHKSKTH
# Excerpt: (§1) 12.5 (Systat Software, Inc.; San Jose, CA, USA). […] 1.1 (Systat Software, Inc.).
# [2] = biological target: human dopamine transporter; set-up: method as in PMID 28824464; details: human dopamine transporter overexpressed system; read-out: Ki for inhibition of dopamine uptake; cited from earlier work
# [3] = biological target: UGT1A4 (Homo sapiens, UniProt P22310); assay: Inhibition of UGT1A4-catalyzed trifluoperazine N-glucuronidation in human liver microsomes
# Description: (§2) The inhibitory effect of APINACA and typical UGT inhibitors on UGT1A1, UGT1A3, UGT1A4, UGT1A6, UGT1A9, and UGT2B7 were evaluated following our previous method by LC–MS/MS after incubation of ultrapooled human liver microsomes with a cocktail of UGT substrates. […] The reactions were initiated by adding UDPGA, and the incubation continued for 60 min at 37 °C in a shaking water bath. The reactions were terminated by adding 50 μL of ice-cold acetonitrile containing internal standards (propofol glucuronide for chenodeoxycholic acid 24-acyl-β-glucuronide and mycophenolic acid glucuronide; and meloxicam for SN-38 glucuronide, trifluoperazine glucuronide, N-acetylserotonin β-D-glucuronide, and naloxone 3-β-D-glucuronide). The incubation mixtures were centrifuged at 13,000× g for 8 min at 4 °C. Next, 50 μL of each supernatant of A and B set was mixed, and aliquots (5 μL) were analyzed by LC–MS/MS. All assays were performed in triplicate, and the average values were used in calculations.
# (§3) To measure the time-dependent inhibition, human liver microsomes were preincubated with the various concentrations of APINACA (final concentrations of 0.1–100 μM) and UDPGA for 30 min at 37 °C. Next, the reaction mixtures were incubated with UGT probe substrate cocktail sets for 60 min at 37 °C. The control reaction was performed by adding methanol instead of the test compounds.
# (§4) 1.1 (Systat Software, Inc.).
# [4] = biological target: T2, OCT2 (Homo sapiens, UniProt O15244); assay: Uptake of [3-H]methyl-4-phenylpyridinium in HEK293-OCT2 cells; type: in vitro ADME
# T2 construct: host or cells: HEK293 (transient overexpression)
# T2 sequence (O15244 1-555): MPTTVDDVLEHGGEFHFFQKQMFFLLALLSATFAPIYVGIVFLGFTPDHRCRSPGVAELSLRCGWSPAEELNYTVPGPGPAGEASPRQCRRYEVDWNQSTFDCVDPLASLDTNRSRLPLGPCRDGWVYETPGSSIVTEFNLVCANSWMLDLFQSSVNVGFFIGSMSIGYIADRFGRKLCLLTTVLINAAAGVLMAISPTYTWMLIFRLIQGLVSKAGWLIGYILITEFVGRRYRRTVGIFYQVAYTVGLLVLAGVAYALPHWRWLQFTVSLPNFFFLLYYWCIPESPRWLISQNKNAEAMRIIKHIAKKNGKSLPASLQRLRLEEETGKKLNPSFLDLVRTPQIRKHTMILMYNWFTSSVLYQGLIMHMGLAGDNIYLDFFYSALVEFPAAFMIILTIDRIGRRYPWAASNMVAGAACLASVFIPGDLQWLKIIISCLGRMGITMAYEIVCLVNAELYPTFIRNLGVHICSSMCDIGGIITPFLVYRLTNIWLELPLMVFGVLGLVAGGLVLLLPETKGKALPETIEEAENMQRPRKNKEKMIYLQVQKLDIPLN
# Description: To examine the effects of APINACA and typical inhibitors on transporter activity, the uptake of a probe substrate into HEK293 cells overexpressing the respective solute carrier transporters was measured in the presence of APINACA (final concentrations of 0–250 μM) or typical inhibitors for 5 min. The concentrations and probe substrates were selected as follows: 0.1 μM [3-H]MPP^+ (for OCT1 and OCT2), 0.1 μM [3-H]PAH (for OAT1), 0.1 μM [3-H]ES (for OAT3 and OATP1B1), and 0.1 μM [3-H]EG (for OATP1B3).
# as §1
# [5] = biological target: UGT1A6 (Homo sapiens, UniProt P19224); assay: Inhibition of UGT1A6-catalyzed N-acetylserotonin glucuronidation in human liver microsomes
# Description: as §2, §3, §4
# [6] = biological target: T3, OAT3 (Homo sapiens, UniProt Q8TCC7); assay: Uptake of [3-H]estrone-3-sulfate in HEK293-OAT3 cells; type: in vitro ADME
# T3 construct: host or cells: HEK293 (transient overexpression)
# T3 sequence (Q8TCC7 1-542): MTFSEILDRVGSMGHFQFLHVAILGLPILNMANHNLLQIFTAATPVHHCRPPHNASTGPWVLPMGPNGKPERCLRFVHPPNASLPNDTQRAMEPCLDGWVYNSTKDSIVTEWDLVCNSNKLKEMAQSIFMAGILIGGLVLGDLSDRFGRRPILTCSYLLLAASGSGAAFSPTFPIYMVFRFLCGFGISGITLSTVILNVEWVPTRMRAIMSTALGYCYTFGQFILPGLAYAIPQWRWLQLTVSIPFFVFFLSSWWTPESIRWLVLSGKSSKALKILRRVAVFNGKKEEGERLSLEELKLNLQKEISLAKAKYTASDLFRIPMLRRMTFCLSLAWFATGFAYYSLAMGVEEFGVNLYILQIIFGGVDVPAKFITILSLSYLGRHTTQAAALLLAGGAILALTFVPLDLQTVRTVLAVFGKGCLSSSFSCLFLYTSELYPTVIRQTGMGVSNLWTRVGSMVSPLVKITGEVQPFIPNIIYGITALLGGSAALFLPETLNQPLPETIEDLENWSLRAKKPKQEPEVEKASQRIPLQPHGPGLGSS
# Description: The concentrations and probe substrates were selected as follows: 0.1 μM [3-H]MPP^+ (for OCT1 and OCT2), 0.1 μM [3-H]PAH (for OAT1), 0.1 μM [3-H]ES (for OAT3 and OATP1B1), and 0.1 μM [3-H]EG (for OATP1B3).
# as §4
# UGT1A4, sequence (P22310 29-534): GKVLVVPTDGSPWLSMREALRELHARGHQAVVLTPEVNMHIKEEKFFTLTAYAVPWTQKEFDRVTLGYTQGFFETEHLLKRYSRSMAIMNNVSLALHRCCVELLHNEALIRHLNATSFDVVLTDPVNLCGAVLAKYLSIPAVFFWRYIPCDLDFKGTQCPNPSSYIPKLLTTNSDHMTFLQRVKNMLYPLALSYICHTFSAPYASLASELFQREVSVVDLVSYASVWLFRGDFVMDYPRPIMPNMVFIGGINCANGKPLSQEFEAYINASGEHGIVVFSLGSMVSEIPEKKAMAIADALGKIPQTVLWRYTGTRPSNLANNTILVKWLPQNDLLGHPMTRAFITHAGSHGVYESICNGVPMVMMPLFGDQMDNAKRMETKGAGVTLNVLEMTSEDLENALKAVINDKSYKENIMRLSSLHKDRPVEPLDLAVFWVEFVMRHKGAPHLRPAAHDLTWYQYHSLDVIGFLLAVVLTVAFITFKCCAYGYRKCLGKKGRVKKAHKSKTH
# UGT1A6, sequence (P19224 27-532): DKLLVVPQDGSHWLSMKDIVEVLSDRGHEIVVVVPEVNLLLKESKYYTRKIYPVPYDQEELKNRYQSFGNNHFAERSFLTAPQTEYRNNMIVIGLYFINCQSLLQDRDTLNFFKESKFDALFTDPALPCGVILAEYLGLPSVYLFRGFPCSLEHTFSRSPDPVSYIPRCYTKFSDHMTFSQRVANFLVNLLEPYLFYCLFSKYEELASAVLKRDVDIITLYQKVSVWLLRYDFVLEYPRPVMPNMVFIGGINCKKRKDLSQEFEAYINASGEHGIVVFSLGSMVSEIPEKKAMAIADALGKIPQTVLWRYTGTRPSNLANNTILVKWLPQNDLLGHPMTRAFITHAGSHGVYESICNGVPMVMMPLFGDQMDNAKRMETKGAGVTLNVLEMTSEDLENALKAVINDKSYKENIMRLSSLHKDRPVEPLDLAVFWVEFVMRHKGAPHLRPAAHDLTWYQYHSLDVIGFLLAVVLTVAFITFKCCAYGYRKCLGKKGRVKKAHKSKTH
smiles,measurement,setting,value
"CCCCCn1nc(C(=O)NC23CC4CC(CC(C4)C2)C3)c2ccccc21 [APINACA, N-(1-adamantyl)-1-pentyl-1H-indazole-3-carboxamide]",IC50,"[1]; with 30-min preincubation, 30-min preincubation with UDPGA (○)",30.7 µM
same,IC50,"[1]; without preincubation, 0.2 µM mycophenolic acid",32.7 µM
same,Ki,[2],4.6 µM
same,IC50,[3],> 100 µM
same,IC50,"[3]; read-out: IC50 UGT1A4 trifluoperazine N-glucuronidation, with 30-min preincubation, pooled human liver microsomes, 30-min preincubation with UDPGA (○)",> 100 µM
same,IC50,[4],> 250 µM
same,IC50,[5],> 100 µM
same,IC50,"[5]; read-out: IC50 UGT1A6 N-acetylserotonin glucuronidation, with 30-min preincubation, pooled human liver microsomes, 30-min preincubation with UDPGA (○)",> 100 µM
same,IC50,[6],> 250 µM
